Data published in patent publication US20220054535A1, “STRONTIUM BASED COMPOSITIONS AND FORMULATIONS FOR PAIN, PRURITUS, AND INFLAMMATION” (STRONTIUM NEUROGENICS INC., priority 2018, published 2022).

Columns and labels:
TCN activation = assay: Burning pain and stinging from highly acidic chemical peel (70% glycolic acid, pH 0.6); assay type: in vivo; settings: strontium mixed with the acid (70% glycolic acid, pH 0.6)
Procedure: Nociceptors also have a CaSR that inhibits nociceptor activation when the extracellular concentration of calcium is raised above normal, or if a similar concentration of strontium is administered. […] When strontium is mixed with the acid, burning pain and stinging is suppressed by 80% or more so that any remaining sensory irritation is not bothersome.

TNF-alpha = TNF-alpha (Homo sapiens, UniProt P01375); assay: Preliminary investigations on the psoriasis inflammatory/keratinocyte cycle, TNF-alpha
Sequence of TNF-alpha (P01375 77-233 limits assumed, species assumed): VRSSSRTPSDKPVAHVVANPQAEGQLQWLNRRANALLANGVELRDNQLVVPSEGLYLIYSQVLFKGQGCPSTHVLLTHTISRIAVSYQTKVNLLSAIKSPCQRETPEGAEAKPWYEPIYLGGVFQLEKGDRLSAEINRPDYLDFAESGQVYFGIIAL
Excerpt: (§1) The present disclosure is premised on the belief that the psoriatic cycle begins with a triggering event such as trauma, infection, or stress that causes the keratinocytes to become stressed and activates dendritic cells. The dendritic cells release IL-12 and IL-23, which in turn stimulate Th17 and Th1 cells […]. Th17 releases […] which stimulates inflammation. Similarly, Th1 cells release […] which stimulates inflammation. Th1 cells also stimulate keratinocyte division leading to the formation of plaques. The activation of immune cells releases cytokines which also activates keratinocytes. The interaction between the immune system and keratinocyte activation becomes a self-feeding cycle.
(§2) Applicants' preliminary investigations indicate that strontium can break up the inflammatory/keratinocyte cycle of psoriasis, specifically by blocking the IL-17 and TNF-alpha. By targeting and blocking the two main pathways that activated dendritic cells use to trigger a psoriatic episode, strontium has immense potential as a therapeutic for psoriasis.

TLR-4 = TLR-4 (Homo sapiens, UniProt O00206); assay: Preliminary data in atopic dermatitis pathways, TLR-4
Sequence of TLR-4 (O00206 24-839, species assumed): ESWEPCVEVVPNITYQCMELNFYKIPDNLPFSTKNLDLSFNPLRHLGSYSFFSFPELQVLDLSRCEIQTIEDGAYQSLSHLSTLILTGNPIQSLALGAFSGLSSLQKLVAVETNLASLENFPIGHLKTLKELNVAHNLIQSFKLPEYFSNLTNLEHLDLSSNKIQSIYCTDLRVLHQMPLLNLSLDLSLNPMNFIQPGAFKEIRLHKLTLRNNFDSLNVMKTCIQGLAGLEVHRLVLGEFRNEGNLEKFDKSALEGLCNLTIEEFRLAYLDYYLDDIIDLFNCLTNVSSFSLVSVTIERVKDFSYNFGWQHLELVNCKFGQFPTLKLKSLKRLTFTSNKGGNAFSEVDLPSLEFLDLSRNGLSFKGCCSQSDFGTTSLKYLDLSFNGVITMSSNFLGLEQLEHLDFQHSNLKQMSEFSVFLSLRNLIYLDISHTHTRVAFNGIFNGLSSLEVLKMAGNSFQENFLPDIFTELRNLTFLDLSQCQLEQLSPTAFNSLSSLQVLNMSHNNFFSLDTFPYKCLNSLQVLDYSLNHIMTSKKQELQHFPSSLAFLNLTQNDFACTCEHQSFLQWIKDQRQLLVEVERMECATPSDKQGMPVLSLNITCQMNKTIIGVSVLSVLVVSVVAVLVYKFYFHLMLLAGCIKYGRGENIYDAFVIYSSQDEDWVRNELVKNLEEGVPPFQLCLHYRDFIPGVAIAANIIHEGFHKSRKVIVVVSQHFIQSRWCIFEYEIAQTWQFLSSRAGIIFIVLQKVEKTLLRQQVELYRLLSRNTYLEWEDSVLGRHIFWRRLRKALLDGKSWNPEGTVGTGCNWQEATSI
Sequence of TLR-4 (Q9Y6Y9 17-160 partner limits assumed, species assumed): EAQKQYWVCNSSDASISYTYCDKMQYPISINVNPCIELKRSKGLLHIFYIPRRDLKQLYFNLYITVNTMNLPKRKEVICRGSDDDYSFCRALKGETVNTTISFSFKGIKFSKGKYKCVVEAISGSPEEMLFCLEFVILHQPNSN
Excerpt: The present disclosure is premised on the belief that people with atopic dermatitis have higher levels of Staphylococcus aureus on their skin. The higher bacterial levels trigger an immune response via the toll-like receptors, in particular toll-like receptor 4 (TLR-4). The present disclosure is also premised on the belief that continual activation of TLR-4 contributes to the chronic nature of atopic dermatitis.

CICR pathway = settings: cited from earlier work
MMP = assay: Preliminary data in atopic dermatitis pathways, MMP activity
Excerpt: Other molecular pathways activated in atopic dermatitis include matrix metalloproteinases (MMPs). MMPs are a family of enzymes capable of breaking down extracellular matrix proteins, including connective tissues.

HSV1 = assay: Preliminary investigations on HSV1 symptoms; assay type: in vivo
Excerpt: Without wishing to be bound by any one theory, it is believed that strontium's ability to block NF-Kappa B contributes to minimizing the symptoms associated with an active infection. As mentioned above, HSV 1 and 2 require the activation of NF-Kappa B for de novo virus synthesis. By blocking NF-Kappa B, strontium is essentially stopping the infection at an early stage.

[1] = Preliminary investigations on post herpetic neuralgia pain; assay type: in vivo
IL-17 = target: T1, IL-17 (Homo sapiens, UniProt Q16552); assay: Preliminary investigations on the psoriasis inflammatory/keratinocyte cycle, IL-17
T1 sequence (Q16552 24-155): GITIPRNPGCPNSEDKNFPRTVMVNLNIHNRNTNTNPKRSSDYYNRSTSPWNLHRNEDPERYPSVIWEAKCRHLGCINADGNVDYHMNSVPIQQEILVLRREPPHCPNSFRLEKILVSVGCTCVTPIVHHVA
Excerpt: as §1, §2

[2] = system: synchronous neurotransmitter release in response to TCN activation; settings: strontium substitutes for calcium; cited from earlier work

[Sr+2] [strontium, Strontium]
suppression of burning pain and stinging (TCN activation): ≥ 80% | blocking of TNF-alpha (TNF-alpha): blocking | TLR-4 activity (TLR-4): can block | ability to induce CICR relative to calcium (CICR pathway): over a hundred-fold less active than calcium | concentration reached in the ER, greater than calcium (CICR pathway; in the ER): more than 150% | MMP activity (MMP): can block | pain, itch, and rash/blister formation associated with HSV1 (HSV1): can reduce and or eliminate | pain associated with PHN [1]: can reduce or block | blocking of IL-17 (IL-17): blocking | reduction of amplitude of synchronous neurotransmitter release [2]: more than 90%
